Assay results as given in BindingDB's records for doi:10.1016/s0968-0896(02)00069-x (Universidad De Navarra, 2002).
pIC50: −log10 of the molar value. Where a name gives a salt, the structure may show the parent alone.

molecular target: Cyclin-dependent kinase 1/G2/mitotic-specific cyclin-B (Marthasterias glacialis, UniProt P15206+Q9DGD3); assay: Kinase Inhibition Assay; settings: pH 7.2; 30 °C
Procedure: Kinase activities were assayed in buffers containing substrate, enzyme, and inhibitor at 30 °C in the presence of 15 uM ATP/ [gamma-32P] ATP. 32P incorporation was measured with a scintillation counter. The IC50 is the inhibitor concentration, which inhibits 50% of kinase activity that catalyzes the transfer of the terminal phosphate from 32P labeled ATP to the substrate.

Cyclin-dependent kinase 1/G2/mitotic-specific cyclin-B, sequence (Q9DGD3 whole entry): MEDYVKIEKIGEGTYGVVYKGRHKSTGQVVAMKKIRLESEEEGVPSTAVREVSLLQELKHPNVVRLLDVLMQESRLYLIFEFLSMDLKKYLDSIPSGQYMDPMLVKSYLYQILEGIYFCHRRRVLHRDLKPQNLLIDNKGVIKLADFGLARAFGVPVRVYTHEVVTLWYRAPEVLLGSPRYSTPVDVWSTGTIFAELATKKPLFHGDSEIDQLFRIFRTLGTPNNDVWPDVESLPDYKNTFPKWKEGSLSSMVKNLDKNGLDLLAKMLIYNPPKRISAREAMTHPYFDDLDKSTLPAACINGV
Cyclin-dependent kinase 1/G2/mitotic-specific cyclin-B, sequence (P15206 whole entry): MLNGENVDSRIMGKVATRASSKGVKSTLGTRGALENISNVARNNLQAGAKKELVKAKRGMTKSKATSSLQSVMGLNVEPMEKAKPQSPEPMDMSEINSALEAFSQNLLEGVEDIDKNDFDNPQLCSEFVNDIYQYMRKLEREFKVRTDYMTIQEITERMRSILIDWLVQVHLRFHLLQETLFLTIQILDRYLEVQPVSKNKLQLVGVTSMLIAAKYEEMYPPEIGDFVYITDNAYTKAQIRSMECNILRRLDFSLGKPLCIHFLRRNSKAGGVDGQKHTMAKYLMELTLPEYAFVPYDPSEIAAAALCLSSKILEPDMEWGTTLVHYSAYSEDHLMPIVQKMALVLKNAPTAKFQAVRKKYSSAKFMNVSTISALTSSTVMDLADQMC

Compound | pIC50
CCN(CC)CCn1nc(N)c2nc3ccccc3nc21 [1-[2-(diethylamino)ethyl]-1H-pyrazolo[3,4-b]quinoxalin-3-amine] | < 5.00
CN(C)CCn1nc(N)c2nc3ccccc3nc21 [1-[2-(dimethylamino)ethyl]-1H-pyrazolo[3,4-b]quinoxalin-3-amine] | < 5.00
Cc1cc2nc3c(N)nn(CCCN(C)C)c3nc2cc1C [1-[3-(dimethylamino)propyl]-6,7-dimethyl-1H-pyrazolo[3,4-b]quinoxalin-3-amine] | < 5.00
Nc1n[nH]c2nc3ccccc3nc12 [1H-pyrazolo[3,4-b]quinoxalin-3-amine] | 6.22
Clc1ccc2nc3[nH]nc(Cl)c3nc2c1 [3,6-Dichloro-1H-pyrazolo[3,4-b]quinoxaline] | 4.82
CN(C)CCCn1nc(N)c2nc3ccccc3nc21 [3-Amino-1-(3-dimethylamino-prop-1-yl)-1H-pyrazolo[3,4-b]quinoxaline hydrochloride] | < 5.00
CCN(CC)CCn1nc(N)c2nc3cc(C)c(C)cc3nc21 [3-Amino-6,7-dimethyl-1-(2-diethylamino-ethyl)-1H-pyrazolo[3,4-b]quinoxaline] | < 5.00
Cc1cc2nc3[nH]nc(N)c3nc2cc1C [3-Amino-6,7-dimethyl-1H-pyrazolo[3,4-b]quinoxaline] | 4.68
CN(C)CCn1nc(N)c2nc3cc(Cl)ccc3nc21 [3-Amino-6-chloro-1-(2-dimethylamino-ethyl)-1H-pyrazolo[3,4-b]quinoxaline] | < 5.00
Cc1ccc2nc3[nH]nc(N)c3nc2c1 [3-Amino-6-methyl-1H-pyrazolo[3,4-b]quinoxaline] | 5.46
Nc1n[nH]c2nc3ccc(C(F)(F)F)cc3nc12 [3-Amino-6-trifluoromethyl-1H-pyrazolo[3,4-b]quinoxaline] | 5.35
Clc1n[nH]c2nc3ccccc3nc12 [3-Chloro-1H-pyrazolo[3,4-b]quinoxaline] | 4.66
Nc1nn(C(=O)c2ccncc2)c2nc3ccccc3nc12 [3-amino-1-(pyridin-4-yl-carbonyl)-1H-pyrazolo[3,4-b]quinoxaline] | < 5.00
CCN(CC)CCn1nc(N)c2nc3cc(Cl)ccc3nc21 [6-chloro-1-[2-(diethylamino)ethyl]-1H-pyrazolo[3,4-b]quinoxalin-3-amine] | < 5.00
CN(C)CCCn1nc(N)c2nc3cc(Cl)ccc3nc21 [6-chloro-1-[3-(dimethylamino)propyl]-1H-pyrazolo[3,4-b]quinoxalin-3-amine] | < 5.00
Nc1n[nH]c2nc3ccc(Cl)cc3nc12 [6-chloro-1H-pyrazolo[3,4-b]quinoxalin-3-amine] | 5.34
COc1ccc2[nH]c3nnc(N)c-3nc2c1 [6-methoxy-1H-pyrazolo[3,4-b]quinoxalin-3-amine] | 5.32
